SMILES strings stand for the structures. Activity calls are given as the source filed them. The calls are words filed in the database; no cut-off is given here.

For one assay, the species on record is Sus scrofa. As to the kind of experiment: Inhibition of pig recombinant catechol-O-methyltransferase at 100 uM.
Take `N#CC(C#N)=Cc1cc(O)c(O)c([N+](=O)[O-])c1`: the outcome was Active.

For a further assay, the species on record is Sus scrofa. As to the kind of experiment: Activity of pig recombinant catechol-O-methyltransferase assessed per unit enzyme.
As to `N#CC(C#N)=Cc1ccc(O)cc1`, the Activity stood at 0.05 pmol/min. Same read-out and setting: for `N#C/C(=C\c1ccc(O)c(O)c1)C(N)=O` the value was 2.98 pmol/min; for `N#C/C(=C\c1ccc(O)c(O)c1)C(=O)O`, 3.67 pmol/min.

Regarding `N#CC(C#N)=Cc1ccc(O)c(O)c1`, the Activity came out at 2.44 pmol/min. On the same count and under the same terms, under `N#CC(C#N)=Cc1cc(O)c(O)c([N+](=O)[O-])c1` stands 0.05 pmol/min; under `N#C/C(=C\c1ccc(O)c(O)c1)C(=O)NCCCCc1ccccc1`, 2.84 pmol/min; under `N#C/C(=C\c1ccc(O)c(O)c1)C(N)=S`, 2.45 pmol/min. On the same count and under the same terms, for `C[C@@H](NC(=O)/C(C#N)=C/c1ccc(O)c(O)c1)c1ccccc1` the value was 3.06 pmol/min.

For the molecule `N#C/C(=C\c1ccc(O)c(O)c1)C(=O)NCCCc1ccccc1`, the Activity worked out at 3.11 pmol/min. For `COc1c(C(C)(C)C)cc(C=C(C#N)C#N)cc1C(C)(C)C`, the Activity was determined as 0.04 pmol/min.

As to `N#CC(C#N)=Cc1cc(O)c(O)c(O)c1`, the Activity was found to be 1.65 pmol/min.

With `N#C/C(=C\c1ccc(O)c(O)c1)C(=O)NCc1ccccc1`, the Activity is 3.06 pmol/min. Same read-out and setting: for `C[C@H](NC(=O)/C(C#N)=C/c1ccc(O)c(O)c1)c1ccccc1` the value was 3.08 pmol/min. The same measure, in the same setting: under `N#CC(C#N)=C(N)/C(C#N)=C/c1cc(O)c(O)c(O)c1` stands 1.79 pmol/min.
